Reference: patent publication US10150793B2, “Antagonists of CB1 receptor” (INSERM (Institut National de la Santé et de la Recherche …, priority 2011, dated 2018)

How the values were obtained:
CB1 receptor [1] = target: T1, CB1 receptor (Mus musculus, UniProt P47746); assay: THC-induced increase in food intake in mice; type: in vivo; parameters: tissue Charles River Laboratories (France) (animals); host or cells: living mice, whole animal; conditions: mice; THC between 0.5 and 1 mg/kg; compounds between 2 and 4 mg/kg 30 min before THC
T1 sequence (P47746 whole entry): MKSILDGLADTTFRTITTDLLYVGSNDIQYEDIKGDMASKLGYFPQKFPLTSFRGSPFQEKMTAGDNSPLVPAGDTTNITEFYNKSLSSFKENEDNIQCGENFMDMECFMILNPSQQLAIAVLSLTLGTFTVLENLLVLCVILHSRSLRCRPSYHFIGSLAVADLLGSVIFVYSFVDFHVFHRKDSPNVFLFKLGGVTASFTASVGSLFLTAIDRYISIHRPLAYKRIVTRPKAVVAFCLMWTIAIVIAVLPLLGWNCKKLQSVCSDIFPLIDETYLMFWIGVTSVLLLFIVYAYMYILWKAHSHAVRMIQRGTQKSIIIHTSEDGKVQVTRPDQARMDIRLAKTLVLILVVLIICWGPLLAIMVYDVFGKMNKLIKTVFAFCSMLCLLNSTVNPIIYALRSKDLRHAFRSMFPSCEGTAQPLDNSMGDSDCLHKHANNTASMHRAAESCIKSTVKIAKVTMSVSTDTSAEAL
Procedure: Food intake was evaluated by measuring consumption of food in the home cages of the animals. For each animal, 50-100 g of standard laboratory chow (U.A.R., France) was placed in the cleaned home cage. The remaining amount of food was weighted 1 h later and the amount of food consumed calculated.
(§1) Other pregnenolone derivatives (Table 4) for which the metabolism in downstream active steroids was reduced were tested for their ability to inhibit: 1. effects of the THC-induced cannabinoid tetrade (decrease in body temperature and in locomotor activity, (THC 10 mg/kg, compounds 6 mg/kg 15-30 min before THC) that is recognized as a sound method to evaluate the activation of the CB1 receptor; 2. THC-induced increase in food intake a typical effect of CB1 activation (THC between 0.5 and 1 mg/kg, compounds between 2 and 4 mg/kg 30 min before THC); 3. the increase in TNFalpha induced by LPS, another effects typical of CB1 […] (compounds 6 mg/kg 15 min before LPS). For each compound and each test independent groups of animals were used (at least n=6 per compound/per test).

CHO cells = assay: Study of metabolism in vitro in CHO cells, steroids in culture medium by GC/MS; conditions: CHO cells
Procedure: Plasma, brain and culture medium levels of pregnenolone (5-Pregnen-3β-ol-20-one), allopregnanolone (3α-hydroxy-5α-pregnan-20-one), epiallopregnanolone (3β-hydroxy-5α-pregnan-ol-20-one), testosterone, and 5α dihydrotestosterone were determined by GC/MS according to the of estraction, purification and quantification protocol described previously (George O, et al., Biol Psychiatry. 2010 68: 956-63, Vallee M, et al., Anal Biochem. 2000, 287:153-66).
The CHO-K1 cell line (#CCL-61, ATCC-LGC, USA) derived as a subclone from the parental CHO cell line initiated from a biopsy of an adult Chinese hamster ovary was used. The CHO-K1 cells were seeded on 24-well plates (#353047, BD Biosciences, USA) to the appropriate concentration (25×10^4 cells/well) in fresh, antibiotic-free medium constituted by 90% DMEM-Glutamax; (#31966-21, Life technologies, USA) and 10% Fetal Bovine Serum (#10270-106, Life technologies, USA).
In this example the inventors further analyzed the metabolism of pregnenolone derivatives using an in vitro test in CHO cells. These cells derived from the ovary have all the enzymes needed to metabolize pregnenolone in down stream steroids.

CB1 receptor [2] = target: T1, CB1 receptor; assay: THC-induced cannabinoid tetrad (body temperature, locomotor activity, catalepsy, analgesia); type: in vivo, mice; parameters: tissue Charles River Laboratories (France) (animals); host or cells: living mice, whole animal; conditions: mice; THC 10 mg/kg; compounds 6 mg/kg 15-30 min before THC
TNF-α = assay: Increase in plasma TNF-alpha induced by LPS; type: in vivo, mice; conditions: Mus musculus; mice; compounds 6 mg/kg 15 min before LPS
Procedure: Trunk blood was collected and centrifuged at 3000 rpm for 15 min at 4° C. Plasma was stored at −80° C. until measurement of TNFα was carried out. Plasma TNFα levels were assessed using an ELISA kit, following the manufacturer's instructions (Fisher Scientific, Catalog #E6473C).
In this example the inventors further analyzed the ability of pregnenolone to inhibit the effects of CB1 activation in the context of inflammation and fibrosis. […] TNF-alpha is one of the cellular responses to inflammatory stimuli more involved in promoting fibrosis.
as §1

Structure (SMILES)	% Inhibition of THC-Induced food intake (CB1 receptor [1])	metabolism in downstream active steroids (Reduced metabolism / Metabolized) (CHO cells)	% Inhibition temperature decrease (CB1 receptor [2])	% increase in motor activity (CB1 receptor [2])	inhibition in vivo at 6 mg/kg (TNF-α) [%]
C[C@H](O)[C@@]1(O)CCC2C3CCC4=CC(=O)CC[C@]4(C)C3CC[C@@]21C (stereo in doubt) [Compound 14, 4-Pregnen-17α,20α-diol-3-one]	70%, P < 0.06	Reduced metabolism	45%, P < 0.001	277%, P < 0.004	65
CC(=O)[C@H]1CCC2C3CC=C4C[C@@H](OCc5ccccc5)CC[C@]4(C)C3CC[C@@]21C (stereo partly drawn) [Compound 41, 3β-Benzyloxypregnenolone]		Reduced metabolism	38%, P < 0.001	106%, P < 0.03	62
CO[C@H]1CC[C@@]2(C)C(=CCC3C2CC[C@@]2(C)C3CC[C@]2(C)C(C)=O)C1 (stereo partly drawn) [Compound 35, 3β-Methoxy-17α-methylpregnenolone]		Reduced metabolism	33%, P < 0.01	−32%, P > 0.24	57
COC1(C(C)=O)CCC2C3CC=C4C[C@@H](O)CC[C@]4(C)C3CC[C@@]21C (stereo partly shown) [Compound 36, 17-Methoxypregnenolone]	≥100%, P < 0.003	Reduced metabolism	54%, P < 0.001	326%, P < 0.001	37
CC[C@]1(C(C)=O)CCC2C3CC=C4C[C@@H](O)CC[C@]4(C)C3CC[C@@]21C (stereo partly drawn) [Compound 32, 17α-Ethylpregnenolone]		Reduced metabolism	12%, P > 0.25	−2%, P > 0.25	64
CC(=O)[C@H]1CC[C@H]2[C@@H]3CC[C@@H]4CC(=O)CC[C@]4(C)[C@H]3CC[C@]12C [Compound 60, 5β-Pregnan-3,20-dione]	≥100%, P < 0.002		66%, P < 0.0001	70%, P < 0.05	77
CC(=O)[C@H]1CCC2C3CC=C4CC(N=[N+]=[N-])CC[C@]4(C)C3CC[C@@]21C (stereo partly shown) [Compound 72, 3-Azidopregnenolone]	≥100%, P < 0.001	Reduced metabolism	34%, P < 0.05	145%, P < 0.05	61
CC(=O)[C@@]1(Cc2ccccc2)CCC2C3CC=C4C[C@@H](O)CC[C@]4(C)C3CC[C@@]21C (stereo partly drawn) [Compound 65, 17α-Benzylpregnenolone]	≥100%, P < 0.001	Reduced metabolism	53%, P < 0.003	142%, P < 0.03	65
CC[C@H]1CCC2C3CC=C4C[C@@H](O)CC[C@]4(C)C3CC[C@@]21C (stereo partly shown) [Compound 24, 20-Deoxypregnenolone]		Reduced metabolism	25%, P < 0.08	33%, P > 0.20	34
CC(=O)[C@@]1(C)CCC2C3CCC4=CC(=O)CC[C@]4(C)C3CC[C@@]21C (stereo partly drawn) [Compound 40, 17α-Methylprogesterone]	74%, P < 0.07	Reduced metabolism	18%, P < 0.02	57%, P < 0.21	57
CC(=O)[C@H]1CCC2C3CC[C@@H]4C[C@@H](O)CC[C@]4(C)C3CC[C@@]21C (stereo partly drawn) [Compound 77, 5β-Pregnan-3β-ol-20-one (Epipregnanolone)]	≥100%, P < 0.01	Reduced metabolism	70%, P < 0.0001	177%, P < 0.02	76
C[C@H](O)[C@H]1CCC2C3CC=C4C[C@@H](O)CC[C@]4(C)C3CC[C@@]21C (stereo partly drawn) [Compound 20, 5-Pregnen-3β,20α-diol]	85%, P < 0.03	Reduced metabolism	34%, P < 0.04	123%, P < 0.04	65
C[C@@H](O)[C@H]1CCC2C3CCC4=CC(=O)CC[C@]4(C)C3CC[C@@]21C (stereo in doubt) [Compound 18, 4-Pregnen-20α-ol-3-one]	30%, P > 0.25	Reduced metabolism	25%, P < 0.04	146%, P < 0.1	65
CC(=O)C1=CC[C@H]2[C@@H]3CC=C4CCCC[C@]4(C)[C@H]3CC[C@]12C [Compound 39, 5,16-Pregnadien-20-one]	≥100%, P < 0.02	Reduced metabolism	56%, P < 0.001	309%, P < 0.001	46
C[C@@H](O)[C@H]1CCC2C3CCC4=C[C@@H](O)CC[C@]4(C)C3CC[C@@]21C (stereo in doubt) [Compound 12, 4-Pregnen-3β,20α-diol]	≥100%, P < 0.001	Reduced metabolism	42%, P < 0.004	100%, P < 0.16	81
